What was measured:
[1] = system: ankylosing spondylitis patients; experiment: Response of ankylosing spondylitis patients to apremilast treatment, by biomarker-defined patient group; type: in vivo, human
Experimental: In this example, a group of ankylosing spondylitis patients was identified based on expression profile of 49 biomarkers as being more likely to be responsive to a treatment with apremilast. In particular, Myriad RBM inflammation MAP biomarker panel (having 49 biomarkers) was used to profile 280 patient samples in the study, among which 255 patient samples produced measurable biomarker levels. In these 255 patient samples, 95 patient samples were treated with 20 mg apremilast (“Apremilast 20 mg Arm Group”). Within the Apremilast 20 mg Arm Group, 36 patient samples were responsive to the treatment and 59 patient samples were not responsive to the treatment. 80 patient samples were treated with 30 mg apremilast (“Apremilast 30 mg Arm Group”). Within Apremilast 30 mg Arm Group, 31 patient samples were responsive to the treatment and 49 patient samples were not responsive to the treatment. The remaining 80 patient samples were control samples (placebo arm).
Unsupervised clustering was then used to analyze the biomarker expression profiles for these patient samples based on the 49 biomarkers (consensus clustering/distance (1-PCor)/Ward linkage method). These 49 biomarkers were Alpha-1-Antitrypsin, Alpha-2-Macroglobulin, Beta-2-Microglobulin, Brain-Derived Neurotrophic Factor, C-Reactive Protein, Complement C3, Eotaxin-1, Factor VII, Ferritin, Fibrinogen, Granulocyte-Macrophage Colony-Stimulating Factor, Haptoglobin, Intercellular Adhesion Molecule 1, Interferon gamma, Interleukin-1 alpha, Interleukin-1 beta, Interleukin-1 receptor antagonist, Interleukin-10, Interleukin-12 Subunit p40, Interleukin-12 Subunit p70, Interleukin-15, Interleukin-17, Interleukin-2, Interleukin-23, Interleukin-3, Interleukin-4, Interleukin-5, Interleukin-6, Interleukin-7, Interleukin-8, Macrophage Inflammatory Protein-1 alpha, Macrophage Inflammatory Protein-1 beta, Matrix Metalloproteinase-3, Matrix Metalloproteinase-9, MCP1, Stem Cell Factor, T-Cell-Specific Protein RANTES, Tissue Inhibitor of Metalloproteinases, Tumor Necrosis Factor alpha, Tumor Necrosis Factor beta, Tumor necrosis factor receptor 2, Vascular Cell Adhesion Molecule-1, Vascular Endothelial Growth Factor, Vitamin D-Binding Protein, von Willebrand Factor, Osteoprotegerin, Interleukin-18, RANKL, and Sclerostin.
The results are shown in the plot of FIG. 1A. As shown, a group of 50 patients (cluster 4) were identified as representing about 30% of the total treatment arm population. […] In particular, within this group of 50 patients, the response rate was about 54%, higher than the response rate in the remaining patients which was about 31%.
Each biomarker was then further analyzed for its association with the cluster 4 patient group. MCP1 cytokine was identified as being able to most strongly differentiate the cluster 4 group with the remaining patients. […] The threshold derived from the mid-point (or average) of the median of MCP1 low cluster and the median of non MCP1 low patients was 93.5 pg/ml (see the dash line in the right panel of FIG. 2A).
When the threshold was calculated as the mid-point between median MCP1 level in cluster 4 patient group and median MCP1 level in the remaining patients, the threshold level was 93.5 pg/ml.
A third method used to calculate a MCP1 threshold level was by calculating the mean of thresholds obtained from 10-fold cross validation (discussed above). In particular, each fold provided an optimal threshold according to the AUC metric when classifying for cluster membership. Then, the mean value of the 10 thresholds was calculated. Using this method, the threshold of MCP1 was calculated as 75.63 pg/ml. With this more restrictive learned threshold, the population selected into the MCP1 low group decreased while the response rate of the MCP1 low sub-group increased.

[2] = system: Ankylosing Spondylitis; settings: after 24 weeks, largest study trial; placebo 22%; cited from earlier work

Molecule | patient samples responsive to the treatment ([1]; Apremilast 20 mg Arm Group, 95 patient samples) | patient samples responsive to the treatment ([1]; Apremilast 30 mg Arm Group, 80 patient samples) | response rate ([1]; MCP1 low group, threshold 75.63 pg/ml, apremilast 30 mg arm (22% of the patients)) | response rate ([1]; MCP1 low group, threshold 93.5 pg/ml, apremilast 30 mg arm (45% of the patients)) | response rate ([1]; MCP1 low group, threshold 93.5 pg/ml, both 20 mg and 30 mg arms (36% of the patients)) | response rate ([1]; cluster 4 (MCP1 low patient group), 50 patients, 20 mg or 30 mg apremilast) | response rate ([1]; cluster 4 patients receiving 30 mg apremilast (25 patients)) | patients responded ([1]; cluster 4 patients receiving 30 mg apremilast, out of 25) | response rate ([1]; patient subgroup differentiated by MCP1 level (14% of total population), apremilast arm 20 mg or 30 mg, FIG. 2B) | response rate ([1]; patient subgroup differentiated by MCP1 level (20% of apremilast 30 mg arm), 30 mg apremilast, FIG. 2C) | response rate ([1]; remaining patients (not cluster 4), treatment arms) | response rate ([1]; remaining patients in the Apremilast 30 mg Arm Group (not cluster 4)) | response rate (ASAS 20 response criteria) [2]
CCOc1cc([C@@H](CS(C)(=O)=O)N2C(=O)c3cccc(NC(C)=O)c3C2=O)ccc1OC [apremilast, (+)-2-[1-(3-ethoxy-4-methoxyphenyl)-2-methylsulfonylethyl]-4-acetylaminoisoindoline-1,3-dione] | 36 | 31 | 67% | 56% | 49% | about 54% | 64% | 16 | about 62.5% | about 66.6% | about 31% | 27% | 
etanercept |  |  |  |  |  |  |  |  |  |  |  |  | 57%

— patent publication US10018637B2, “Methods for treating inflammatory and other diseases and the use of biomarkers as predictors of clinical sensitivity to treatment with apremilast” (CELGENE INTERNATIONAL II SARL, priority 2015, dated 2018)
